Data taken from US20260158125A1, “PEPTIDE VACCINE” (ARGONAUT THERAPEUTICS LIMITED, priority 2021, published 2026).

Test system: splenocytes (IFN y activated T cells)
Assay: Immunogenicity assay: peptide vaccination and interferon gamma ELispot of splenocytes
Format: in vivo
Conditions: Balb/c mice vaccinated day 0 and 7, 50 μg/peptide with polyIC and anti-CD40; splenocytes restimulated at 15 μg/ml
Procedure: Groups of 8 week old Balb/c mice (Charles River) were vaccinated i.v with the indicated peptide mix (Table 2), (50 μg/peptide (GenScript)) with 30 μg polyIC and 25 μg anti-CD40 mAb). As a positive control AH peptide (SPSYVYHQF SEQ ID NO: 156) vaccination was used (Huang et al., 1996). Vehicle-only mice were vaccinated with DMSO/PBS plus adjuvants as above. Mice were boosted i.v. 7 days later with the same formulation. Mice were culled 7 days post-boost and their spleens removed (4 mice per group). All animals were housed in specific pathogen-free conditions at the Biomedical Services Building (University of Oxford). All work was performed under UK Home Office license PPL PP3430109 in accordance with the UK Animal (Scientific Procedures) Act 1986. All work was performed by trained and licensed individuals.
The day before culling, Merk Multiscreen 96 well Filter Plates (Merck) were incubated with primary antibody (anti-mouse INFy mAb clone AN18, Mabtech) diluted in sterile PBS (Gibco), at 4° C. […] The splenocyte pellet was resuspended in 5 ml R10, counted and the cell concentration adjusted to 4×10^5/ml. […] The spots were quantitated on an ELISPOT counter (AID, Germany).

With SPSYVYHQF (AH1 peptide) [AHI1] the “immunogenicity (IFN y activated T cells, ELISpot)” value was “positive immunogenic control”.
